The nature of this data set: recombinant barcode read abundance after kanamycin selection (control-corrected) (log10(CPM+1)); higher = more efficient recombination; sequences stand for … in AGTGCAGAGAAAATCGGCCAGTTTTCTCTGCCTGCAGTCCGCATGCCGT…AGATTTATGCAGCGGACTGCCTTTCTCCCAAAGTGATAAACCGGACAGTATCATGGACCGGTTTTCCCGGTAATCCGTATTTGCAAGGTTGGTTTCACT; site = the 11-nt target. In outline: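 This pooled E. coli screen matched targets with IS621 bridge RNA target-binding loops. Plating was done in duplicate on chloramphenicol/ampicillin LB agar as a control and on chloramphenicol/ampicillin/kanamycin plus 0.1 mM IPTG. Recombination efficiency reflects barcode counts at recombinant junctions as counts per million, averaged and control-corrected. The figures are log10(CPM+1).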
As to “ATATACTCTTGGGTTCTAACCTGTTGCCG (site ATATACTCTCG)”, the “recombinant barcode read abundance (log10)” value turned out to be 2.38.

On to “ATATACTCTTGGGTTCTAACCTGTTGCCG (site ATCTACTCTAG)”, for which the “recombinant barcode read abundance (log10)” value amounted to 0.0335.

In the case of “ATATGAGCTTGGGTTCTAACCTGTTGCCG (site ATATGAGCTCG)”, the “recombinant barcode read abundance (log10)” value amounted to 0.307.

With “ATATGAGCTTGGGTTCTAACCTGTTGCCG (site ATATGCGCTCG)”, the “recombinant barcode read abundance (log10)” value turned out to be 0.175.

Take “ATATGAGCTTGGGTTCTAACCTGTTGCCG (site ATATGGGCTCG)”: the “recombinant barcode read abundance (log10)” value turned out to be 0.0468.

As to “ATATGAGCTTGGGTTCTAACCTGTTGCCG (site ATATGTGCTCG)”, the “recombinant barcode read abundance (log10)” value was 0.167.

On to “ATATGAGCTTGGGTTCTAACCTGTTGCTT (site ACATGACCTAA)”, for which the “recombinant barcode read abundance (log10)” value was found to be 0.177.

“ATATGAGCTTGGGTTCTAACCTGTTGCTT (site ATATGAGCTAA)”: the “recombinant barcode read abundance (log10)” value was found to be 0.283.

Take “ATCAACCCTTGGGTTCTAACCTGTTGCCA (site ATCAACCCTTG)”: the “recombinant barcode read abundance (log10)” value is 1.04.

For “ATCAACCCTTGGGTTCTAACCTGTTGCCA (site TCGTCTACTGA)”, the “recombinant barcode read abundance (log10)” value worked out at 0.375.

With “ATCACAGCTTGGGTTCTAACCTGTTGCCT (site ATCAAAGCTAG)”, the “recombinant barcode read abundance (log10)” value was 0.136.

As to “ATCACAGCTTGGGTTCTAACCTGTTGCCT (site ATCACAGCTAG)”, the “recombinant barcode read abundance (log10)” value was 0.736.

In the case of “ATCACGCCTTGGGTTCTAACCTGTTGCCT (site ACCACGCCTAG)”, the “recombinant barcode read abundance (log10)” value is 0.128.

In the case of “ATCACGCCTTGGGTTCTAACCTGTTGCCT (site ATCACGCCTAG)”, the “recombinant barcode read abundance (log10)” value was 0.544.

Consider “ATCAGGTCTTGGGTTCTAACCTGTTGCCT (site AACAGGTCTAG)”, for which the “recombinant barcode read abundance (log10)” value came to 0.299.

With “ATCAGGTCTTGGGTTCTAACCTGTTGCCT (site ACCAGGTCTAG)”, the “recombinant barcode read abundance (log10)” value was 0.18.

Regarding “ATCAGGTCTTGGGTTCTAACCTGTTGCCT (site AGCAGGTCTAG)”, the “recombinant barcode read abundance (log10)” value was 0.107.

On to “ATCAGGTCTTGGGTTCTAACCTGTTGCCT (site ATCAGGTCTAG)”, for which the “recombinant barcode read abundance (log10)” value amounted to 0.431.

For the sequence “ATCAGTACTTGGGTTCTAACCTGTTGCCT (site ATCAGTACTAG)”, the “recombinant barcode read abundance (log10)” value turned out to be 0.307.

As to “ATCAGTACTTGGGTTCTAACCTGTTGCCT (site CTGAGTACTAG)”, the “recombinant barcode read abundance (log10)” value was determined as 0.242.

Take “ATCCAGGCTTGGGTTCTAACCTGTTGCGG (site ATCCAGGCTCC)”: the “recombinant barcode read abundance (log10)” value came out at 2.07.

As for “ATCCAGGCTTGGGTTCTAACCTGTTGCGG (site ATTCAGACTCC)”, the “recombinant barcode read abundance (log10)” value came out at 0.00907.

As for “ATCGGAGCTTGGGTTCTAACCTGTTGCTG (site ATCGGAGCTCA)”, the “recombinant barcode read abundance (log10)” value turned out to be 0.991.

Take “ATCGGAGCTTGGGTTCTAACCTGTTGCTG (site ATCGGAGCTCC)”: the “recombinant barcode read abundance (log10)” value stood at 0.67.

“ATCGGAGCTTGGGTTCTAACCTGTTGCTG (site ATCGGAGCTCG)”: the “recombinant barcode read abundance (log10)” value was 0.455.

Regarding “ATCGGAGCTTGGGTTCTAACCTGTTGCTG (site ATCGGAGCTCT)”, the “recombinant barcode read abundance (log10)” value came out at 0.627.

On to “ATCGGATCTTGGGTTCTAACCTGTTGCCG (site ATCGGATCTCG)”, for which the “recombinant barcode read abundance (log10)” value was found to be 0.782.

Consider “ATCGGATCTTGGGTTCTAACCTGTTGCCG (site CATAACCCTAT)”, for which the “recombinant barcode read abundance (log10)” value was 0.349.

Turning to “ATCGGGCCTTGGGTTCTAACCTGTTGCCT (site ATCGGGCCTAG)”, the “recombinant barcode read abundance (log10)” value was 0.47.

For the sequence “ATCGGGCCTTGGGTTCTAACCTGTTGCCT (site CTCGGGCCTAG)”, the “recombinant barcode read abundance (log10)” value was found to be 0.0724.

Turning to “ATCGGGCCTTGGGTTCTAACCTGTTGCCT (site GTCGGGCCTAG)”, the “recombinant barcode read abundance (log10)” value worked out at 0.582.

On to “ATCGGGCCTTGGGTTCTAACCTGTTGCCT (site TTCGGGCCTAG)”, for which the “recombinant barcode read abundance (log10)” value came out at 0.0744.

Turning to “ATCGTAGCTTGGGTTCTAACCTGTTGCCA (site ACCCTAGCTTG)”, the “recombinant barcode read abundance (log10)” value came to 0.497.

Consider “ATCGTAGCTTGGGTTCTAACCTGTTGCCA (site ATCGTAGCTTG)”, for which the “recombinant barcode read abundance (log10)” value turned out to be 0.228.

With “ATCGTTCCTTGGGTTCTAACCTGTTGCGT (site ACCGGTCCTAC)”, the “recombinant barcode read abundance (log10)” value stood at 0.0508.

In the case of “ATCGTTCCTTGGGTTCTAACCTGTTGCGT (site ATCGTTCCTAC)”, the “recombinant barcode read abundance (log10)” value worked out at 0.411.

With “ATCTTACCTTGGGTTCTAACCTGTTGCCT (site ATCTTAACTAG)”, the “recombinant barcode read abundance (log10)” value amounted to 0.069.

With “ATCTTACCTTGGGTTCTAACCTGTTGCCT (site ATCTTACCTAG)”, the “recombinant barcode read abundance (log10)” value came to 0.681.

With “ATCTTACCTTGGGTTCTAACCTGTTGCCT (site ATCTTAGCTAG)”, the “recombinant barcode read abundance (log10)” value was 0.0332.

Regarding “ATCTTACCTTGGGTTCTAACCTGTTGCCT (site ATCTTATCTAG)”, the “recombinant barcode read abundance (log10)” value turned out to be 0.109.

Consider “ATGAAGCCTTGGGTTCTAACCTGTTGCCT (site ATGAAGCCTAG)”, for which the “recombinant barcode read abundance (log10)” value amounted to 1.87.

Regarding “ATGAAGCCTTGGGTTCTAACCTGTTGCCT (site CTGAAGCCTAG)”, the “recombinant barcode read abundance (log10)” value was 0.053.

In the case of “ATGAAGCCTTGGGTTCTAACCTGTTGCCT (site GTGAAGCCTAG)”, the “recombinant barcode read abundance (log10)” value is 0.177.

With “ATGAAGCCTTGGGTTCTAACCTGTTGCCT (site TTGAAGCCTAG)”, the “recombinant barcode read abundance (log10)” value amounted to 0.503.

Turning to “ATGAGCTCTTGGGTTCTAACCTGTTGCTA (site ATGAGCTCTTA)”, the “recombinant barcode read abundance (log10)” value worked out at 1.12.

“ATGAGCTCTTGGGTTCTAACCTGTTGCTA (site ATGAGGTCTGA)”: the “recombinant barcode read abundance (log10)” value is 0.0495.

Regarding “ATGAGTCCTTGGGTTCTAACCTGTTGCAA (site ATGAGTCCTTT)”, the “recombinant barcode read abundance (log10)” value stood at 1.25.

“ATGAGTCCTTGGGTTCTAACCTGTTGCAA (site TGAGAGACTAC)”: the “recombinant barcode read abundance (log10)” value stood at 0.0172.

Take “ATGATACCTTGGGTTCTAACCTGTTGCCT (site AAGATACCTAG)”: the “recombinant barcode read abundance (log10)” value stood at 0.157.

On to “ATGATACCTTGGGTTCTAACCTGTTGCCT (site ATGATACCTAG)”, for which the “recombinant barcode read abundance (log10)” value came to 1.84.

Consider “ATGCAAACTTGGGTTCTAACCTGTTGCCT (site ATGCAAACTAG)”, for which the “recombinant barcode read abundance (log10)” value worked out at 1.31.

With “ATGCAAACTTGGGTTCTAACCTGTTGCCT (site ATGCAACCTAG)”, the “recombinant barcode read abundance (log10)” value was found to be 0.0759.

Consider “ATGCAAACTTGGGTTCTAACCTGTTGCCT (site ATGCAAGCTAG)”, for which the “recombinant barcode read abundance (log10)” value was 0.653.

Turning to “ATGCAAACTTGGGTTCTAACCTGTTGCCT (site ATGCAATCTAG)”, the “recombinant barcode read abundance (log10)” value is 0.151.

“ATGCACGCTTGGGTTCTAACCTGTTGCCT (site ATGCACGCTAG)”: the “recombinant barcode read abundance (log10)” value amounted to 1.81.

In the case of “ATGCACGCTTGGGTTCTAACCTGTTGCCT (site TATATGACTCC)”, the “recombinant barcode read abundance (log10)” value came out at 0.036.

As for “ATGCCAACTTGGGTTCTAACCTGTTGCCT (site ATGCCAACTAG)”, the “recombinant barcode read abundance (log10)” value came out at 0.327.

In the case of “ATGCCAACTTGGGTTCTAACCTGTTGCCT (site ATGCCCACTAG)”, the “recombinant barcode read abundance (log10)” value came to 0.059.

Consider “ATGCCAACTTGGGTTCTAACCTGTTGCCT (site ATGCCGACTAG)”, for which the “recombinant barcode read abundance (log10)” value was found to be 0.204.

Consider “ATGCCAACTTGGGTTCTAACCTGTTGCCT (site ATGCCTACTAG)”, for which the “recombinant barcode read abundance (log10)” value came out at 0.00977.

For the sequence “ATGCCCTCTTGGGTTCTAACCTGTTGCCT (site ATGACCTCTAG)”, the “recombinant barcode read abundance (log10)” value was found to be 0.688.

Regarding “ATGCCCTCTTGGGTTCTAACCTGTTGCCT (site ATGCCCTCTAG)”, the “recombinant barcode read abundance (log10)” value amounted to 2.07.

With “ATGCCCTCTTGGGTTCTAACCTGTTGCCT (site ATGGCCTCTAG)”, the “recombinant barcode read abundance (log10)” value came to 0.0962.

Regarding “ATGCCCTCTTGGGTTCTAACCTGTTGCCT (site ATGTCCTCTAG)”, the “recombinant barcode read abundance (log10)” value stood at 0.0521.

Turning to “ATGCCTACTTGGGTTCTAACCTGTTGCCT (site ATGCCAACTAG)”, the “recombinant barcode read abundance (log10)” value was 0.0174.

With “ATGCCTACTTGGGTTCTAACCTGTTGCCT (site ATGCCCACTAG)”, the “recombinant barcode read abundance (log10)” value came to 0.0532.

In the case of “ATGCCTACTTGGGTTCTAACCTGTTGCCT (site ATGCCGACTAG)”, the “recombinant barcode read abundance (log10)” value worked out at 0.0715.

“ATGCCTACTTGGGTTCTAACCTGTTGCCT (site ATGCCTACTAG)”: the “recombinant barcode read abundance (log10)” value was determined as 0.337.

Regarding “ATGCCTCCTTGGGTTCTAACCTGTTGCTT (site ATGCCTCCTAA)”, the “recombinant barcode read abundance (log10)” value came out at 0.165.

In the case of “ATGCCTCCTTGGGTTCTAACCTGTTGCTT (site GAAGGAGCTCT)”, the “recombinant barcode read abundance (log10)” value was 0.07.

Turning to “ATGCGTTCTTGGGTTCTAACCTGTTGCCT (site AGGTGTTCTAG)”, the “recombinant barcode read abundance (log10)” value worked out at 0.203.

Regarding “ATGCGTTCTTGGGTTCTAACCTGTTGCCT (site ATGCGTTCTAG)”, the “recombinant barcode read abundance (log10)” value was determined as 1.73.

As to “ATGCTTGCTTGGGTTCTAACCTGTTGCCA (site ATGCTTGCTTG)”, the “recombinant barcode read abundance (log10)” value came out at 0.187.

On to “ATGCTTGCTTGGGTTCTAACCTGTTGCCA (site TGTGCAACTCA)”, for which the “recombinant barcode read abundance (log10)” value is 0.299.

In the case of “ATGGATACTTGGGTTCTAACCTGTTGCCT (site ATGGATACTAG)”, the “recombinant barcode read abundance (log10)” value amounted to 2.26.

For “ATGGATACTTGGGTTCTAACCTGTTGCCT (site ATGTACACTAG)”, the “recombinant barcode read abundance (log10)” value came to 0.22.

As to “ATGGATCCTTGGGTTCTAACCTGTTGCGT (site AGGGATCCTAC)”, the “recombinant barcode read abundance (log10)” value came out at 0.758.

These data come from the supplement of paper PMC11208160.
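Also: IS621 recombinase and bridge RNA in Escherichia coli cells.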
